# Test results from patent publication US12691097B2, “Methods and compositions for treating polyomavirus” (Brown University, priority 2022, dated 2026).
# Entries after “also recorded” stand apart in the source; their conditions may differ.
# How the values were obtained:
# JCPyV [1] = assay: JCPyV infection, cells not stated (FIG. 1, FIG. 2); format: cell-based, JC polyomavirus
# PML = assay: administration to patients with or at risk of PML (Examples 1-6); format: in vivo
# From the text: The patient's difficulty in walking is decreased. […] The patient's facial drooping is decreased. […] The patient's loss of vision is decreased. […] The patient's seizures are decreased. […].
# [2] = test system: human and simian polyomaviruses; assay: initial infection by human and simian polyomaviruses (FIG. 4); format: cell-based
# [3] = cytotoxicity in SVG-A cells; format: cell-based; conditions: human, read-out: 50% cytotoxic concentration (CC50)
# JCPyV [4] = assay: long-term cell-to-cell spread of JCPyV; format: cell-based, JC polyomavirus; conditions: introduced after establishment of a productive infection
# From the text: SI50 values are important metrics in drug discovery, and an SI50 greater than 10 is commonly considered to be an important starting point in drug development.
# JCPyV [5] = assay: initial JCPyV infection in SVG-A glial cells, indirect immunofluorescent quantification of viral proteins; format: cell-based, JC polyomavirus; conditions: pre-treatment
# JCPyV [6] = assay: initial JCPyV infection in primary normal human astrocytes (NHA), indirect immunofluorescent quantification of viral proteins; format: cell-based, JC polyomavirus; conditions: pre-treatment
# JCPyV [7] = assay: rescue of JCPyV infection by PMA cotreatment in SVG-A cells; format: cell-based, JC polyomavirus; conditions: SVG-A cells cotreated with PMA and GW-5074
# ERK1/2 = assay: endogenous ERK phosphorylation, with or without PMA; format: cell-based
# [8] = cytotoxicity in NHA cells; format: cell-based; conditions: human, read-out: 50% cytotoxic concentration (CC50)
# JCPyV [9] = test system: JCPyV; set-up: unit not given beside the values; conditions: cells not given; cited from earlier work
# [10] = patient with early signs of PML
smiles,measurement,setting,value
"O=C1Nc2ccc(I)cc2C1=Cc1cc(Br)c(O)c(Br)c1 [GW-5074, 3-(3,5-dibromo-4-hydroxybenzylidene)-5-iodoindolin-2-one]",initial JCPyV infection,"JCPyV [1]; FIG. 1, cells not stated",reduction in initial JCPyV infection
same,protective effect,JCPyV [1]; FIG. 2,protective effect
same,development of PML,PML; patient at risk for the development of PML,does not develop PML
same,difficulty in walking,PML; [10],decreased
same,facial drooping,PML; [10],decreased
same,loss of vision,PML; [10],decreased
same,loss of vision,PML; patient with mid-stage PML,decreased
same,seizures,PML; patient with mid-stage PML,decreased
same,initial infection by human and simian polyomaviruses,[2],reduction of initial infection
same,CC50,[3],> 100 µM
same,long-term cell-to-cell spread of JCPyV,JCPyV [4],inhibition of viral spread; also recorded: inhibited long-term cell-to-cell spread of JCPyV
same,IC50,"JCPyV [5]; JC polyomavirus, SVG-A cells, one round of productive infection, read-out: 50% inhibitory concentration (IC50)",6.8 µM
same,initial JCPyV infection,"JCPyV [5]; SVG-A glial cells, non-toxic concentrations",potently reduced initial JCPyV infection
same,IC50,"JCPyV [6]; JC polyomavirus, Astrocyte, NHA cells, one round of productive infection, read-out: 50% inhibitory concentration (IC50)",0.84 µM
same,initial JCPyV infection,"JCPyV [6]; primary normal human astrocytes, non-toxic concentrations",reduction of initial infection; also recorded: potently reduced initial JCPyV infection
same,rescue of JCPyV infection,JCPyV [7],JCPyV infection could not be rescued
same,endogenous ERK phosphorylation,ERK1/2,inhibits endogenous ERK1/2 phosphorylation; also recorded: inhibited endogenous ERK phosphorylation
same,restoration of ERK activity,ERK1/2; coincubation with PKC agonist PMA,ERK activity could not be restored
same,CC50,[8],> 20 µM
Cc1ccc(C2Nc3ccccc3C(=O)N2c2ccccc2)s1 (stereo not shown) [Retro-2^cycl],SI50 of established compounds with anti-JCPyV activity,JCPyV [9],7.4
CN(C)CCCN1c2ccccc2Sc2ccc(Cl)cc21 [chlorpromazine],SI50 of established compounds with anti-JCPyV activity,JCPyV [9],2.0
OC(c1cc(C(F)(F)F)nc2c(C(F)(F)F)cccc12)C1CCCCN1 (stereo not shown) [mefloquine],SI50 of established compounds with anti-JCPyV activity,JCPyV [9],4.0
